Assay results as given in patent US20260373248A1, “DEGRADABLE PEPTOIDS” (Medici Therapeutics, Inc., priority 2023, published 2026).
Non-standard residues stand in square brackets, D forms with d. Residues, ends and D or L forms follow the SMILES beside them. *: point of attachment. Gly(N-(3-decanoyloxypropyl)) = CCCCCCCCCC(=O)OCCCNCC(=O)O; N(3-lauroyloxypropyl)Gly = CCCCCCCCCCCC(=O)OCCCNCC(=O)O; Gly(N-(CH2)3O-octanoyl) = CCCCCCCC(=O)OCCCNCC(=O)O; N(3-imidazol-1-ylpropyl)Gly = O=C(O)CNCCCn1ccnc1; Gly(N-3-morpholinopropyl) = O=C(O)CNCCCN1CCOCC1; N(2-ethylhexyl)Gly = CCCCC(CC)CNCC(=O)O; N(CH(CH2OH)2)Gly = O=C(O)CNC(CO)CO; N(octyl)Gly = CCCCCCCCNCC(=O)O; NDecylGly = CCCCCCCCCCNCC(=O)O; NHexGly = CCCCCCNCC(=O)O; For = O=C*

How the values were obtained:
[1] = Delivery vehicle size and polydispersity by dynamic light scattering; type: physicochemical
Summary of the method: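 Dynamic light scattering in PBS gave size and polydispersity of peptoid LNPs. These were dialyzed overnight at 4 °C into tris-sucrose buffer pH 7.4 after microfluidic 1:3 volume mixing of mRNA in pH 5.0 citrate with ethanol lipids (peptoid:DSPC:cholesterol:DMG-PEG2000 20:1.79:7.16:1.84 w/w).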

[2] = tested on: mRNA; test: mRNA encapsulation (modified Quant-iT RiboGreen assay); type: physicochemical; conditions: for mean percent encapsulation of RNA: RiboGreen, without vs with Triton X-100; for % Encapsulation: mRNA
Summary of the method: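 Encapsulated fraction was calculated by comparing RiboGreen signal (excitation 485 nm, emission 530 nm) of intact particles with that of particles lysed by a 10-min Triton X-100 treatment. Total mRNA concentration was taken from the lysed samples.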

[3] = tested on: firefly luciferase; test: In vivo firefly luciferase expression after intravenous injection of fLuc mRNA delivery vehicles (IVIS imaging); set-up: species or system female Balb/c mice; conditions: for Total Flux (luciferase expression): fLuc mRNA, intravenous, Balb/c mice; for Total Flux: mice, 2.5 ug fLuc mRNA intravenously, 6 hours post-injection
Summary of the method: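 Read-out is total photon flux per region of interest, from whole-body IVIS images taken 10 minutes after IP D-luciferin (30 mg/mL, 10 μL/g) and from excised organs. Female Balb/c mice aged 6-8 weeks received 2.5 ug fLuc mRNA Nutshells intravenously 6 hours before imaging.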

[4] = tested on: hEPO; test: Quantification of hEPO in serum after IV injection of mRNA (Human EPO ELISA); type: in vivo; conditions: Balb/c mice, 2.5 μg mRNA IV, serum after 6 hours
Summary of the method: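 Balb/c mice received 2.5 μg mRNA encoding human EPO by IV injection; serum was collected after 6 hours. hEPO was measured by sandwich ELISA (biotin-conjugate, streptavidin-HRP, TMB, A450) against kit standards (mIU/mL) and an external standard (ng/mL), with values interpolated and corrected for dilution.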

[5] = Peptoid quantity remaining in liver by HPLC-TOF mass spectrometry; type: in vivo; conditions: liver homogenate
Summary of the method: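 Whole liver weighed; 20 mg tissue bead-homogenized in IPA/MeOH (8/2) with internal standard, centrifuged, supernatant run on BEH C8 HPLC-TOF MS. Peptoid concentration derived from linear calibration curve (0.2-50 μg/g) prepared in spiked untreated liver.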

[6] = tested on: luciferase; test: Luciferase expression after local (intramuscular or subcutaneous) administration of mRNA; type: in vivo; conditions: mRNA 0.01 mpk, 6 hours; for IM Flux: intramuscular; for SC Flux: subcutaneous
Summary of the method: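 Bioluminescence read 6 hours after fLuc mRNA dosing (peptoid Nutshells; 0.01 mpk S.C. or I.M., 0.1 mpk intratumoral) in female Balb/c mice aged 6-8 weeks. D-luciferin injected IP, whole-body imaging after 10 minutes, then organ imaging; total photon flux per region of interest.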

[7] = DLS in PBS, peptoid:DSPC:Cholesterol:DMG-PEG2000 weight ratio 20:1.79:7.16:1.84, mRNA

| SMILES | PDI [1, 7] | Particle Size [1, 7] [nm] | Particle Size ([1]; formulation recipe D22) [nm] | Particle Size ([1]; formulation recipe O5) [nm] | Particle Size ([1]; formulation recipe O8) [nm] | mean percent encapsulation of RNA [2] [%] | % Encapsulation ([2]; formulation recipe D22) [%] | % Encapsulation ([2]; formulation recipe O5) [%] | % Encapsulation ([2]; formulation recipe O8) [%] | Total Flux (luciferase expression) ([3]; formulation recipe D22) [p/s] | Total Flux (luciferase expression) ([3]; formulation recipe O5) [p/s] | Total Flux (luciferase expression) ([3]; formulation recipe O8) [p/s] | Total Flux [3] [p/s] | hEPO [4] [ng/mL] | % of injected dose remaining in liver [5] | IM Flux [6] [p/s] | SC Flux [6] [p/s] |
| --- | --- | --- | --- | --- | --- | --- | --- | --- | --- | --- | --- | --- | --- | --- | --- | --- | --- |
| CCCCCCCCCCCC(=O)OCCCN(CC(=O)N(CC(N)=O)CC(CC)CCCC)C(=O)CN(CCCCCCCC)C(=O)CN(CC(CC)CCCC)C(=O)CN(CCCOC(=O)CCCCCCCCCCC)C(=O)CN(CCCCCCCC)C(=O)CN(C=O)CCCN1CCOCC1 (centres unmarked) [Compound 74] (For-[Gly(N-3-morpholinopropyl)][N(octyl)Gly][N(3-lauroyloxypropyl)Gly][N(2-ethylhexyl)Gly][N(octyl)Gly][N(3-lauroyloxypropyl)Gly][N(2-ethylhexyl)Gly]-NH2) | 0.151 | 87.1 | 87.1 | 70.1 | 71.7 | 67.6 | 67.6 | 90.4 | 91.5 | 1.96E+09 | 1.92E+09 | 3.39E+09 | 1.96E+09 | 354 | bdl | 4.87E+07 | 2.11E+08 |
| CCCCCCCC(=O)OCCCN(CC(=O)N(CC(=O)N(CC(=O)N(CCCOC(=O)CCCCCCC)CC(=O)N(CC(N)=O)CC(CC)CCCC)CC(CC)CCCC)CC(CC)CCCC)C(=O)CN(CC(CC)CCCC)C(=O)CNC(CO)CO (centres unmarked) [Compound 4] (H-[N(CH(CH2OH)2)Gly][N(2-ethylhexyl)Gly][Gly(N-(CH2)3O-octanoyl)][N(2-ethylhexyl)Gly][N(2-ethylhexyl)Gly][Gly(N-(CH2)3O-octanoyl)][N(2-ethylhexyl)Gly]-NH2) | 0.113 | 74.4 |  |  |  | 94.6 |  |  |  |  |  |  | 4.33E+09 | 291 | 5.98% | 5.26E+08 | 5.11E+08 |
| CCCCCCCCCC(=O)OCCCN(CC(=O)N(CCCOC(=O)CCCCCCCCC)CC(=O)N(CCCCCC)CC(=O)N(CCCOC(=O)CCCCCCCCC)CC(=O)N(CCCOC(=O)CCCCCCCCC)CC(=O)N(CCCCCC)CC(N)=O)C(=O)CNCCCn1ccnc1 [Compound 109] (H-[N(3-imidazol-1-ylpropyl)Gly][Gly(N-(3-decanoyloxypropyl))][Gly(N-(3-decanoyloxypropyl))][NHexGly][Gly(N-(3-decanoyloxypropyl))][Gly(N-(3-decanoyloxypropyl))][NHexGly]-NH2) | 0.173 | 87.5 |  |  |  | 69.5 |  |  |  |  |  |  | 1.85E+09 | 108 | 48.80% | 3.97E+07 | 1.00E+08 |
| CCCCCCCCCCCC(=O)OCCCN(CC(N)=O)C(=O)CN(CC(CC)CCCC)C(=O)CN(CCCCCCCCCC)C(=O)CN(CC(CC)CCCC)C(=O)CN(CCCOC(=O)CCCCCCCCCCC)C(=O)CN(CC(CC)CCCC)C(=O)CNC(CO)CO (centres unmarked) [Compound 59] (H-[N(CH(CH2OH)2)Gly][N(2-ethylhexyl)Gly][N(3-lauroyloxypropyl)Gly][N(2-ethylhexyl)Gly][NDecylGly][N(2-ethylhexyl)Gly][N(3-lauroyloxypropyl)Gly]-NH2) | 0.106 | 79.5 |  |  |  | 95.2 |  |  |  |  |  |  | 6.47E+08 | 112 | −1.85% | 6.35E+07 | 8.71E+08 |
